The structures appear in SMILES notation. Entries after “also recorded” stand apart in the source; their conditions may differ. Counter-ions that a name gives are not always drawn.

For experiment [1], the system named is wt M2TMD21−49. On the set-up: species or system influenza A. As to conditions: pH 5.5.
Experiment [2] addresses T1, M2TMD21−49 (Influenza A virus, UniProt P0DOF5, L46C). It counts as binding. As to conditions: pH 5.5.
In experiment [3] the test system is G34A mutant of M2TMD21−49. More on the design: species or system influenza A. As to conditions: pH 5.5.
For experiment [4], the system named is wt M2TMD21−49. On the set-up: species or system influenza A. As to conditions: pH 5.5. This is another data set of the same source.
The target of experiment [5] is T1, M2TMD21−49.

Turning to `NC12CC3CC(CC(C3)C1)C2` [amantadine, amantadine hydrochloride], in the experiment with wt M2TMD21−49 [1], the “narrowing of Gaussian widths (σ) in the presence of amantadine” value is on record as “ca. 2 Å”; the “r1, Gaussian mean (proximal distance)” value came to 20.8 Å; the “r2, Gaussian mean (lateral distance)” value is 29 Å; the “shortening of inter-spin distances upon binding of amantadine” value is recorded as 5–8 Å. Moreover, the “reduction of k4d in the presence of amantadine” value at M2TMD21−49 [2] is recorded as 10 -fold. For the same compound, in experiment [3], the “effect of amantadine on C-terminal conformation / inter-spin distances of G34A mutant” value is “marginal if any effect on M2TMD C-terminal conformation; also recorded: Inter-spin distances do not change upon the addition of amantadine”. Further, the “maximum increase in DEER modulation depth upon binding of amantadine” value in the experiment on wt M2TMD21−49 [4] is on record as 23–30%. The “oligomeric species seen in EM micrographs” value on M2TMD21−49 [5] is “monomers, dimers, and tetramers”.

Source of the values: PMC4965473 (Frontiers in Physiology, 2016).
